Test results reported in paper PMC11898488, “A2A Adenosine Receptor Antagonists and Their Efficacy in Rat Models of Parkinson’s Disease” (Cells, 2025).
Like-named read-outs stand apart in the source and are kept apart here.

Assays:
human A1AR [1] = biological target: T1, human A1AR (Homo sapiens, UniProt P30542); assay: Radioligand binding, displacement of [3H]CCPA at human A1AR in CHO cells; conditions: for Ki: [3H]-CCPA displacement, geometric mean with 95% confidence limits, read-out: Ki A1
T1 construct: expressed in transfected cells; host or cells: CHO cells, crude membrane fractions
T1 sequence (P30542 1-326): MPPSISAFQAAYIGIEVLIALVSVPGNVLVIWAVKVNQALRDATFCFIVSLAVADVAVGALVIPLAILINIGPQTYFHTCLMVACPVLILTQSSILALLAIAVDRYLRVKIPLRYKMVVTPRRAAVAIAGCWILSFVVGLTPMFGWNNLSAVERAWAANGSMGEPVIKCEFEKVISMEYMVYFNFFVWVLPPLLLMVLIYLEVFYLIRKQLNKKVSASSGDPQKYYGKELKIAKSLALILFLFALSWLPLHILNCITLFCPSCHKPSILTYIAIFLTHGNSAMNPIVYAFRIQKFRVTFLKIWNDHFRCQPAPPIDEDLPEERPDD
Experimental: (§1) The radioligand binding experiments were carried out exactly as described previously. For A1AR binding, 1 nM [^3H]CCPA was used as a radioligand, whereas 30 and 10 nM [^3H]NECA were used for A2A and A3 ARs, respectively. Nonspecific binding was determined in the presence of 1 mM theophylline (A1AR) or […] R-PIA (A2A and A3 ARs). Ki values were calculated from competition curves by nonlinear curve fitting with the program SCTFIT [31].
(§2) CHO cells stably transfected with human ARs were grown adherently and maintained in Dulbecco’s Modified Eagles Medium with nutrient mixture F12 (DMEM/F12) without nucleosides, containing 10% fetal calf serum, penicillin (100 U/mL), streptomycin (100 μg/mL), L-glutamine (2 mM), and Geneticin (G-418, 0.2 mg/mL) at 37 °C in 5% CO2/95% air, as described earlier. For radioligand binding studies and measurement of adenylyl cyclase activity, crude membrane fractions were prepared from fresh or frozen cells with two different protocols described earlier. The determination of adenylyl cyclase activity followed the procedure described earlier. IC50 values for the inhibition of adenylyl cyclase stimulated (in the case of A2BAR) with 5 μM NECA were calculated with the Hill equation and converted to Ki values with the Cheng and Prusoff equation [32].
(§3) [^3H]CCPA (2-chloro-N^6-cyclopentylAdo) and [^3H]NECA (5′-N-ethylcarboxamidoAdo) were used as specific radioligands at A1ARand A2A / A3 ARs, respectively. Furthermore, the ability of the same compounds to inhibit NECA-stimulated adenylyl cyclase activity was evaluated at the A2BAR subtype. The results of the binding studies (A1, A2A, and A3 ARs) and functional data (A2BAR) are reported in Table 1 as Ki or IC50 values in nM, together with the data on the reference compounds 1–3.

human A2AAR [2] = biological target: T2, human A2AAR (Homo sapiens, UniProt P29274); assay: Radioligand binding, displacement of [3H]NECA at human A2AAR in CHO cells; conditions: for Ki: [3H]-NECA displacement, geometric mean with 95% confidence limits, read-out: Ki A2A; for Selectivity A1/A2A / Selectivity A3/A2A: ratio of Ki values at human ARs
T2 construct: expressed in transfected cells; host or cells: CHO cells, crude membrane fractions
Experimental: as §1, §2, §3

human A3AR [3] = biological target: T3, human A3AR (Homo sapiens, UniProt P0DMS8); assay: Radioligand binding, displacement of [3H]NECA at human A3AR in CHO cells; conditions: [3H]-NECA displacement, read-out: Ki A3
T3 construct: expressed in transfected cells; host or cells: CHO cells, crude membrane fractions
T3 sequence (P0DMS8 1-318): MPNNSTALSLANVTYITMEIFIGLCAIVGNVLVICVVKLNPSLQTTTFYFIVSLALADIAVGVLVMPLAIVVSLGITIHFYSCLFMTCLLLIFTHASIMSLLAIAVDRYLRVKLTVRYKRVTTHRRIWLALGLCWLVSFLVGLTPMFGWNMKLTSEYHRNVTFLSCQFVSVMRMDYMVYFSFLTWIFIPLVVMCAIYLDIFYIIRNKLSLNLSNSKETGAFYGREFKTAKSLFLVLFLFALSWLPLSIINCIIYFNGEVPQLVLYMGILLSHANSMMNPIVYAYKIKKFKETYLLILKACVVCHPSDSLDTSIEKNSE
Experimental: as §1, §2, §3

human A2BAR [4] = biological target: T4, human A2BAR (Homo sapiens, UniProt P29275); assay: Inhibition of NECA-stimulated adenylyl cyclase activity at human A2BAR; assay type: biochemical; conditions: inhibition of NECA-stimulated AC activity, CHO cells expressing human A2BAR, read-out: IC50 A2B
T4 construct: expressed in transfected cells; host or cells: CHO cells, crude membrane fractions
T4 sequence (P29275 1-332): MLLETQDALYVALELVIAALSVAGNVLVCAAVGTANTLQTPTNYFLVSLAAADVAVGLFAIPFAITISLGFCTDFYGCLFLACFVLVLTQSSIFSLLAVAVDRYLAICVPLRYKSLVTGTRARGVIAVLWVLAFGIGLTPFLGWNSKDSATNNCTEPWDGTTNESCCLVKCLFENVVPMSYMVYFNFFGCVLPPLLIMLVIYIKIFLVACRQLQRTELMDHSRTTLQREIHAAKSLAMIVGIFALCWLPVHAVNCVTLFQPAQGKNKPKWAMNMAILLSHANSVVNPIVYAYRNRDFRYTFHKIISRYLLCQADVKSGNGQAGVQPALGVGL
Experimental: as §2, §3

human A1AR [5] = biological target: T1, human A1AR; conditions: [3H]-CCPA displacement, human A1AR in CHO cells; geometric mean with 95% confidence limits; read-out: Ki A1; cited from earlier work
human A2AAR [6] = biological target: T2, human A2AAR; conditions: cited from earlier work
human A3AR [7] = biological target: T3, human A3AR; conditions: [3H]-NECA displacement, human A3AR in CHO cells; geometric mean with 95% confidence limits; read-out: Ki A3; cited from earlier work
human A2BAR [8] = biological target: T4, human A2BAR; conditions: inhibition of NECA-stimulated AC activity, CHO cells expressing human A2BAR; geometric mean with 95% confidence limits; read-out: IC50 A2B; cited from earlier work
[9] = geometric mean with 95% confidence limits
[10] = [3H]-NECA displacement, human A2AAR in CHO cells, geometric mean with 95% confidence limits, read-out: Ki A2A

T2 sequence (P29274 whole entry): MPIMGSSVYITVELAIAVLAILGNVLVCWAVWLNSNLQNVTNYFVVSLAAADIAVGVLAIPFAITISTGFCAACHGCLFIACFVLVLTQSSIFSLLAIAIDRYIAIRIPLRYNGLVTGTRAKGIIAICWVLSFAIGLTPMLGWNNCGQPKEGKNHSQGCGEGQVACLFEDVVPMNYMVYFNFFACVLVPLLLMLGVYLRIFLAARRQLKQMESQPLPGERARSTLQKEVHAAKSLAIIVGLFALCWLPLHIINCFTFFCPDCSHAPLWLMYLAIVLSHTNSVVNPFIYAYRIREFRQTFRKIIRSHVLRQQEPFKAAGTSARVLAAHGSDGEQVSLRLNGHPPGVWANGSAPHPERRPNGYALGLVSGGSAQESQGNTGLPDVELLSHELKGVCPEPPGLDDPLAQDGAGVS

Row | Structure (SMILES) | Ki (human A1AR [1]) | Ki (human A2AAR [2]; human A2AAR in CHO cells) | Selectivity A1/A2A (human A2AAR [2]) | Selectivity A3/A2A (human A2AAR [2]) | Ki (human A3AR [3]; [9]) | IC50 (human A2BAR [4]; [9]) | Ki (human A1AR [5]) | Ki (human A2AAR [6]; [10]) | Ki (human A3AR [7]) | IC50 (human A2BAR [8]) | Affinity at A1 AR, in words (human A1AR [1]) | Affinity at A2A AR, in words (human A2AAR [2]; human A2AAR in CHO cells) | Ki (human A3AR [3]; bound given in µM) | IC50 (human A2BAR [4]; bound given in µM) | Ki (human A2AAR [6]; read-out: Ki at the human A2AAR)
1 | CCn1c(-c2cccs2)nc2c(N)nc(OCCc3ccccc3)nc21 [Compound 6] | 21 nM | 7.7 nM | 2.7 | 3.5 | 0.027 µM | 4.99 µM |  |  |  |  |  |  |  |  | 
2 | CCn1cnc2c(N)nc(OCCc3ccccc3)nc21 [Compound 3, 9-ethyl-2-phenethoxyadenine] |  |  | 1.4 | 59 |  |  | 170 nM | 120 nM | 7150 nM | 45800 nM |  |  |  |  | 
3 | CCn1cnc2c(N)nc(Oc3ccc(CCO)cc3)nc21 [Compound 13, 2-(4-((6-amino-9-ethyl-9H-purin-2-yl)oxy)phenyl)ethan-1-ol] | 22900 nM | 7080 nM | 3.2 |  |  |  |  |  |  |  | µM affinity | µM affinity | > 100 µM | > 100 µM | 
4 | CCn1c(Br)nc2c(N)nc(OCCc3ccc(OC)cc3)nc21 [Compound 10, 8-bromo-9-ethyl-2-(4-methoxyphenethoxy)-9H-purin-6-amine] | 197 nM | 28 nM | 7.1 | 146 | 4.06 µM | 9.19 µM |  |  |  |  |  |  |  |  | 
5 | CCn1cnc2c(N)nc(OCCc3ccc(OC)cc3)nc21 [Compound 9, 9-ethyl-2-(4-methoxyphenyl)ethoxyadenine] | 1990 nM | 655 nM | 3.0 | 19 | 12.3 µM | 63.7 µM |  |  |  |  |  |  |  |  | 
6 | CCn1c(-c2ccco2)nc2c(N)nc(OCCc3ccccc3)nc21 [Compound 2, 9-ethyl-8-furyl-2-phenetoxyadenine] |  |  | 2.6 | 7.3 |  |  | 5.8 nM | 2.2 nM | 16 nM | 521 nM |  |  |  |  | 
7 | CCn1c(-c2ccco2)nc2c(N)nc(OCCc3ccc(OC)cc3)nc21 [Compound 11] | 39 nM | 7.1 nM | 5.5 | 10 | 0.073 µM |  |  |  |  |  |  |  |  | > 100 µM | 
8 | CCn1c(C2CCCO2)nc2c(N)nc(OCCc3ccccc3)nc21 (centres unmarked) [Compound 7] | 509 nM | 81 nM | 6.3 | 18 | 1.45 µM | 38.9 µM |  |  |  |  |  |  |  |  | 
9 | CCOc1nc2c(N)ncnc2n1CC [ANR 94, 9-ethyl-8-ethoxyadenine, reference compound] |  |  |  |  |  |  |  |  |  |  |  |  |  |  | 46 nM
